Experimental data from patent US4749790A, “Process for preparing H2 receptor antagonist ascorbate compounds” (priority 1985, dated 1988).
≈ marks a conversion by molar mass, not a printed value. Where two headings read alike, the source gives them in different places. Each block holds one compound with its values, some of them ahead of it.

How the values were obtained:
rats = details: eight days treatment, 500 mg/kg; cited from earlier work
[1] = system: desoxyribonucleic acid (DNA); details: cimetidine 250 mg/kg with nitrite 80 mg/kg; cited from earlier work
gastric carcinoma = details: in vivo; cited from earlier work
[2] = Nitrosation in gastric juice or simulated gastric juice (Griess reagent, TLC); details: for NC (nitrosocimetidine) found: 75 ml simulated gastric juice, 37° C., pH 1.0-3.5, ascorbate-nitrite 6:1 molar ratio
[3] = 70° C.; 20 min (10% hydrochloric acid), 180 min (ascorbic acid); cited from earlier work
[4] = wide pH range; cited from earlier work
pH of aqueous solution = assay type: physicochemical
[5] = Stability to ambient environment (air, light, oxidation)

Compound: Cc1[nH]cnc1CSCCN=C(NC#N)N(C)N=O [NC, nitrosocimetidine]
toxic effect (rats): no toxic effect

Compound: CN/C(=N/CCSCc1nc[nH]c1C)NC#N [cimetidine, N"-cyano-N'-methyl-N-2-(5-methyl-1H-imidazol-4-yl)methylthioethylguanidine]
evidence of DNA damage [1]: no evidence of desoxyribonucleic acid (DNA) damage
gastric carcinoma related with treatment (gastric carcinoma): appearance of a gastric carcinoma
NCD (nitroso compound derivatives) determined ([2]; 400 mg cimetidine, 36.4 mg sodium nitrite, 75 ml gastric juice, pH 1.5, 37° C., 60 min): 100 ppm

TLC spot of nitroso derivative at Rf = 0.83 ([2]; gastric juice pH 1.5, 318 mg diascorbate, 18.2 mg sodium nitrite, 60 min): did not appear
Compound: CNC(=C[N+](=O)[O-])NCCSCc1ccc(CN(C)C)o1 [Example 18, Ranitidine diascorbate]

Compound: O=C1O[C@H]([C@@H](O)CO)C(O)=C1O [ascorbic acid, 3-oxo-L-gulofuranelactone (enolic form)]
denitrosation [3]: innefective
inhibition of N-nitroso compound formation [4]: most effective over a wide pH range

Compound: Cl [hydrochloric acid]
denitrosation [3]: innefective

pH of aqueous solution (pH of aqueous solution): 3.5
Compound: CNC(=C[N+](=O)[O-])NCCSCc1ccc(CN(C)C)o1 [Example 8, Ranitidine L-ascorbate]

pH of aqueous solution (pH of aqueous solution): 5.9
pH of aqueous solution (pH of aqueous solution; listed as famotidine ascorbate): 5.6
solubility (Solubility in water; water, Solubility in water, room temperature where printed): 75 mg/mL (≈ 222 mM)
Compound: NC(N)=Nc1nc(CSCCC(N)=NS(N)(=O)=O)cs1 [Example 12, Famotidine L-ascorbate]
stability to air, light, ambient conditions [5]: has to be preserved from the air and light

Compound: CN/C(=N/CCSCc1nc[nH]c1C)NC#N [Example 16, Cimetidine diascorbate]
stability to air, light, ambient conditions [5]: has to be preserved from the air and light
NC (nitrosocimetidine) found [2]: 0.13 ppm
NC produced in cases of hyperchlorhydria ([2]; abnormally high nitrite concentrations): 0.08 ppm

water solubility (in words) (Solubility in water): water soluble
Compound: Nc1n[s+]([O-])nc1NCCCOc1cccc(CN2CCCCC2)c1 [Example 14, CM.5 antagonist L-ascorbate]
stability to air, light, ambient conditions [5]: has to be preserved from the air and light

Compound: CNC(=C[N+](=O)[O-])NCCSCc1ccc(CN(C)C)o1 [ranitidine, N-(2-(((5-((dimethylamino)methyl)-2-furanyl)methyl)thio)ethyl)N'-methyl-2-nitro-1,1-ethenediamine, reference compound]
formation of nitroso compounds / nitrosatability ([2]; gastric juice conditions): causes the formation of nitroso derivatives and nitrosated degradation products

water solubility (in words) (Solubility in water): water soluble
Compound: Cc1ccc(Cc2c[nH]c(NCCSCc3ccc(CN(C)C)o3)nc2=O)cn1 [Example 15, CM.10 antagonist L-ascorbate]

Compound: CNC(=NC#N)NCCSCc1nc[nH]c1C [Example 1, Cimetidine L-ascorbate]
pH of aqueous solution (pH of aqueous solution): 4.5
outcome of relapse and improvement maintenance cases (duodenal ulcer; maintenance doses 680 mg ascorbate or 860 mg diascorbate, one year continuously, two years with breaks): normality being achieved
outcome in males with duodenal ulcer diagnosis (duodenal ulcer; males aged 55-60 years, usual periods of cimetidine medication): back to normal
water solubility (in words) (Solubility in water): soluble in water
NC (nitrosocimetidine) found ([2]; listed as cimetidine ascorbate): 0.18 ppm
